# Source: patent US9377460B2 (priority 2009, dated 2016)
# Tests used:
# [1] = system: IFN-gamma-secreting T cells; type: cell-based, human; conditions: for Proportion of responders to the Rv3615c peptide pool who respond to the individual peptide, LTBI % / Proportion of responders to the Rv3615c peptide pool who respond to the individual peptide, LTBI n: LTBI subjects; for Proportion of responders to the Rv3615c peptide pool who respond to the individual peptide, LTBI n / Proportion of responders to the Rv3615c peptide pool who respond to the individual peptide, Cases n: subjects responding/pool responders tested; for Proportion of responders to the Rv3615c peptide pool who respond to the individual peptide, Cases % / Proportion of responders to the Rv3615c peptide pool who respond to the individual peptide, Cases n: active TB cases
# CD4-positive T cells = experiment: FACS analysis following cytokine capture assay (IFN-gamma / IL-2); type: cell-based, human; conditions: subject T416 (LTBI), 6 hour stimulation
Sequence,"Proportion of responders to the Rv3615c peptide pool who respond to the individual peptide, LTBI % [1]","Proportion of responders to the Rv3615c peptide pool who respond to the individual peptide, LTBI n [1]","Proportion of responders to the Rv3615c peptide pool who respond to the individual peptide, Cases % [1]","Proportion of responders to the Rv3615c peptide pool who respond to the individual peptide, Cases n [1]","CD4 T cells secreting IFN-gamma only, relative size of subset (CD4-positive T cells)","CD4 T cells secreting IL-2 only, relative size of subset (CD4-positive T cells)","CD4 T cells secreting both IFN-gamma and IL-2, relative size of subset (CD4-positive T cells)"
"AHNALGSSLHTAGVD (listed as Mycobacterium tuberculosis) [p13, 15mer peptide of Rv3615c]",0%,0/4,21%,3/14,–,–,–
"AITHGPYCSQFNDTL (listed as Mycobacterium tuberculosis) [p9, 15mer peptide of Rv3615c]",40%,2/5,0%,0/15,–,–,–
"ASHHDNAAVDASSGV (listed as Mycobacterium tuberculosis) [p4, 15mer peptide of Rv3615c]",20%,1/5,13%,2/15,–,–,–
"ASSGVEAAAGLGESV (listed as Mycobacterium tuberculosis) [p6, 15mer peptide of Rv3615c]",0%,0/5,7%,1/15,–,–,–
"DEAWRKAIDGLFT (listed as Mycobacterium tuberculosis) [p19, carboxy-terminal peptide of Rv3615c]",25%,1/4,15%,2/13,–,–,–
"EAAAGLGESVAITHG (listed as Mycobacterium tuberculosis) [p7, 15mer peptide of Rv3615c]",0%,0/5,7%,1/15,–,–,–
"FNDTLNVYLTAHNAL (listed as Mycobacterium tuberculosis) [p11, 15mer peptide of Rv3615c]",0%,0/5,27%,4/15,–,–,–
"GSSLHTAGVDLAKSL (listed as Mycobacterium tuberculosis) [p14, 15mer peptide of Rv3615c]",50%,2/4,79%,11/14,smallest population,second largest population,dominant population
"IYSEADEAWRKAIDG (listed as Mycobacterium tuberculosis) [p18, 15mer peptide of Rv3615c]",25%,1/4,8%,1/13,–,–,–
"LAKSLRIAAKIYSEA (listed as Mycobacterium tuberculosis) [p16, 15mer peptide of Rv3615c]",100%,4/4,69%,9/13,smallest population,second largest population,dominant population
"LGESVAITHGPYCSQ (listed as Mycobacterium tuberculosis) [p8, 15mer peptide of Rv3615c]",0%,0/5,7%,1/15,–,–,–
"MTENLTVQPERLGVL (listed as Mycobacterium tuberculosis) [p1, 15mer peptide of Rv3615c]",0%,0/5,7%,1/15,–,–,–
"NAAVDASSGVEAAAG (listed as Mycobacterium tuberculosis) [p5, 15mer peptide of Rv3615c]",20%,1/5,13%,2/15,–,–,–
"NVYLTAHNALGSSLH (listed as Mycobacterium tuberculosis) [p12, 15mer peptide of Rv3615c]",40%,2/5,43%,6/14,–,–,–
"PYCSQFNDTLNVYLT (listed as Mycobacterium tuberculosis) [p10, 15mer peptide of Rv3615c]",40%,2/5,40%,6/15,–,–,–
"RIAAKIYSEADEAWR (listed as Mycobacterium tuberculosis) [p17, 15mer peptide of Rv3615c]",50%,2/2,38%,5/13,–,–,–
"RLGVLASHHDNAAVD (listed as Mycobacterium tuberculosis) [p3, 15mer peptide of Rv3615c]",40%,2/5,20%,3/15,–,–,–
"TAGVDLAKSLRIAAK (listed as Mycobacterium tuberculosis) [p15, 15mer peptide of Rv3615c]",50%,2/4,71%,10/14,–,–,–
"TVQPERLGVLASHHD (listed as Mycobacterium tuberculosis) [p2, 15mer peptide of Rv3615c]",0%,0/5,33%,5/15,–,–,–
